Experimental data: the supplement of paper PMC5579334
± gives the standard deviation of the averaged measurements.

Key:
[1] = tested on: HSC2 (primary human Schwann cells); assay: % inhibition of CellTiter-Glo viability at highest tested concentration (72 h), relative to DMSO and benzethonium chloride controls; higher = more inhibition
Method in brief: (§1)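 For this screen, 384-well plates were preprinted with each compound at five concentrations in 10-fold steps and seeded with MPNST cell lines or primary human Schwann cells at 750–1000 cells per well. Incubation lasted 72 h at 37 °C, 5% CO2, and CellTiter-Glo ATP luminescence, scaled between vehicle and positive-control wells and averaged over duplicates where available, served as viability. Logistic fits with four parameters were applied. Relative IC50 (censored at the top concentration) and drug sensitivity score derive from these fits, and percent inhibition is at the top concentration.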

YST-1 [2] = assay: as above
Method in brief: as §1

ST8814 [3] = assay: as above
Method in brief: as §1

HS-PSS [4] = assay: as above
Method in brief: as §1

HS-Sch-2 [5] = assay: as above
Method in brief: as §1

STS26T [6] = assay: as above
Method in brief: as §1

S462 [7] = assay: as above
Method in brief: as §1

[8] = tested on: HSC1 (primary human Schwann cells); assay: as above
Method in brief: as §1

S1507-2 [9] = assay: as above
Method in brief: as §1

[10] = tested on: HSC2 (primary human Schwann cells); assay: drug sensitivity score (DSS, CellTiter-Glo viability, 72 h) (DSS (dimensionless)); higher = more sensitive; extreme values may be limits of the assay
Method in brief: as §1

YST-1 [11] = assay: as above
Method in brief: as §1

ST8814 [12] = assay: as above
Method in brief: as §1

HS-PSS [13] = assay: as above
Method in brief: as §1

HS-Sch-2 [14] = assay: as above
Method in brief: as §1

STS26T [15] = assay: as above
Method in brief: as §1

S462 [16] = assay: as above
Method in brief: as §1

[17] = tested on: HSC1 (primary human Schwann cells); assay: as above
Method in brief: as §1

S1507-2 [18] = assay: as above
Method in brief: as §1

[19] = tested on: HSC2 (primary human Schwann cells); assay: drug sensitivity score (DSS, CellTox-Green cytotoxicity, 72 h) (DSS (dimensionless)); higher = more cytotoxic; extreme values may be limits of the assay
Method in brief: (§2)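 MPNST cell lines and primary human Schwann cells were grown for 72 h at 37 °C in 384-well plates containing five 10-fold compound dilutions. CellTox-Green, added before seeding at a final 1:1000 dilution, gave fluorescence from DNA released by disrupted cells, and signals were scaled to vehicle and positive-control wells. Curves were fitted with a four-parameter logistic model. Drug sensitivity score and relative IC50 come from these fits, with IC50 censored at the top concentration.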

ST8814 [20] = assay: as above
Method in brief: as §2

HS-PSS [21] = assay: as above
Method in brief: as §2

STS26T [22] = assay: as above
Method in brief: as §2

[23] = tested on: HSC1 (primary human Schwann cells); assay: as above
Method in brief: as §2

S1507-2 [24] = assay: as above
Method in brief: as §2

SMILES	% inhibition [1] [%]	% inhibition (YST-1 [2]) [%]	% inhibition (ST8814 [3]) [%]	% inhibition (HS-PSS [4]) [%]	% inhibition (HS-Sch-2 [5]) [%]	% inhibition (STS26T [6]) [%]	% inhibition (S462 [7]) [%]	% inhibition [8] [%]	% inhibition (S1507-2 [9]) [%]	drug sensitivity score [10]	drug sensitivity score (YST-1 [11])	drug sensitivity score (ST8814 [12])	drug sensitivity score (HS-PSS [13])	drug sensitivity score (HS-Sch-2 [14])	drug sensitivity score (STS26T [15])	drug sensitivity score (S462 [16])	drug sensitivity score [17]	drug sensitivity score (S1507-2 [18])	drug sensitivity score [19]	drug sensitivity score (ST8814 [20])	drug sensitivity score (HS-PSS [21])	drug sensitivity score (STS26T [22])	drug sensitivity score [23]	drug sensitivity score (S1507-2 [24])
COc1cc2/c(=N/c3ccc(Br)cc3F)nc[nH]c2cc1OCC1CCN(C)CC1 [Vandetanib] (max concentration tested 1000 nM)	-4.21	2.38	1.05	34.2	8.38	14.5	11.2 ± 6.6	-0.207	28 ± 9.4	0	0	0	4.01	0	0.185	0	0	1.44 ± 2	0	0	0.53	0	0	0.78 ± 1.1
O=c1[nH]cc(F)c(=O)[nH]1 [Fluorouracil] (max concentration tested 10000 nM)	55.5	25.5	4.62	29.4	35	53.4	27.2 ± 7	43.5	11 ± 7.6	2.86	0.94	0	1.09	1.83	6.56	0.808 ± 0.45	1.94	0.493 ± 0.7	0	0	0	0	0	0
O=C(c1ccc(OCCN2CCCCC2)cc1)c1c(-c2ccc(O)cc2)sc2cc(O)ccc12 [Raloxifene] (max concentration tested 10000 nM)	41.8	25.5	36.5	44.5	85.8	41.3	19.7 ± 3.4	42.1	54.55 ± 0.068	3.34	1.7	1.9	4.8	7.33	1.99	0.649 ± 0.51	2.17	2.99 ± 0.22	0	1.85	0	0.897	0	1.4 ± 1.7
O=C1CCC(N2C(=O)c3ccccc3C2=O)C(=O)N1 (configuration not stated) [Thalidomide] (max concentration tested 10000 nM)	8.31	2.49	10.4	8.04	12.4	2.86	-8.98 ± 4.2	1.74	13 ± 12	0	0	0.0095	0	0.45	0	0	0	0.783 ± 1.1	0	0	0	0	0	0
C[C@@]1(C(=O)Nc2ccc(F)nc2)CCCN1c1nc(Nc2cc(C3CC3)n[nH]2)c2cccn2n1 (max concentration tested 10000 nM)	96.7	74.3	93.2	87.3	89.1	64	92.1 ± 1.2	94.8	99.4 ± 1.5	16.2	25.8	13.1	7.91	9.41	8.67	15.5 ± 0.72	14.5	14.5 ± 2.5	9.9	13	3.23	11.7	7.13	9.5 ± 0.59
COc1cc2c(cc1O)CC[C@@H]1[C@@H]2CC[C@]2(C)[C@@H](O)CC[C@@H]12 [2-methoxyestradiol] (max concentration tested 10000 nM)	66.6	75.8	91.9	26.6	84.4	99.8	98.15 ± 0.87	66.2	82 ± 3.8	7.04	6.88	6.11	1.11	10.8	12.1	12.8 ± 0.78	7.26	6.89 ± 0.4	3.98	5.07	0	11.6	0.832	5.59 ± 1
CC(C)(C)c1cc(NC(=O)Nc2ccc(-c3cn4c(n3)sc3cc(OCCN5CCOCC5)ccc34)cc2)no1 [Quizartinib] (max concentration tested 1000 nM)	36.6	78.7	15.8	-10.7	14.4	15.3	64.2 ± 37	47.8	21.3 ± 1.4	1.32	7.45	2.56	0	0.1	1.24	4.8 ± 1.2	3.73	1.94 ± 0.75	0	0	0	0	0	0
CCCc1cc(C)[nH]c(=O)c1CNC(=O)c1cc(-c2ccnc(N3CCN(C)CC3)c2)cc2c1cnn2C(C)C [GSK343] (max concentration tested 10000 nM)	34.4	33.9	94.4	94.3	95.9	84.1	49.6 ± 14	47	86 ± 10	2.64	1.05	5.22	5.59	4.46	3.88	2.58 ± 1.2	4.34	5.498 ± 0.026	0	5.69	5.71	6.48	0	6.1 ± 1.5
C=CC[C@@H]1/C=C(\C)C[C@H](C)C[C@H](OC)[C@H]2O[C@@](O)(C(=O)C(=O)N3CCCC[C@H]3C(=O)O[C@H](/C(C)=C/[C@@H]3CC[C@@H](O)[C@H](OC)C3)[C@H](C)[C@@H](O)CC1=O)[C@H](C)C[C@@H]2OC [Tacrolimus] (max concentration tested 10000 nM)	5.26	7.06	13.4	8.62	-0.54	8.77	1.38 ± 2.8	19.9	6.29 ± 12	0	0	0.177	0	0	0	0	0.469	0.168 ± 0.24	0	0	0	0	0	0
Cn1c(CCCC(=O)O)nc2cc(N(CCCl)CCCl)ccc21 [Bendamustine] (max concentration tested 10000 nM)	8.93	10.4	-3.13	4.27	9.41	0.816	-6.58 ± 4	5.73	-3.59 ± 5.5	0	0.01	0	0	0	0	0	0	0	0	0	0	0	0	0
Oc1nc(-c2ccc(C(F)(F)F)cc2)nc2c1CSCC2 [XAV-939] (max concentration tested 10000 nM)	27.6	23.1	0.935	23	7.73	16.5	6.97 ± 4	37	33.8 ± 7.3	4.89	2.41	0	1.55	0	0.217	0	6.05	2.76 ± 0.27	0	0	0	0	0	1.83 ± 2.6
CN1CCc2c(c3ccccc3n2Cc2ccc(C(=O)NO)cc2)C1 [Tubastatin A] (max concentration tested 10000 nM)	23.3	52.4	40.8	60.9	74.3	52.5	80.8 ± 8.9	36.4	52.1 ± 7.6	1.75	4.65	1.84	3.48	3.88	3.1	4.36 ± 0.37	1.74	3.45 ± 0.18	0	0	0	2.56	0	0.928 ± 1.3
COc1cc(O)c2c(c1)/C=C/C[C@H](O)[C@H](O)C(=O)/C=C\C[C@H](C)OC2=O [(5Z)-7-Oxozeaenol] (max concentration tested 10000 nM)	76.9	26.6	70.6	29.8	39.8	68.6	74.1 ± 6.8	73.1	51.8 ± 16	7.92	1.67	7.1	1.02	2.24	6.93	6.71 ± 1.1	6.52	3.4 ± 0.83	1.01	0.979	0	2.39	0.659	2.79 ± 3
